# Data reported in ChEMBL document CHEMBL3797164, “Transfer of SAR information from hypotensive indazole to indole derivatives acting at α-adrenergic receptors: In vitro and in vivo studies” (Eur J Med Chem, 2016).
# Legend:
# [1] = target: T1, Adrenergic receptor alpha-2 (Rattus norvegicus, UniProt P22086+P19328+P22909); experiment: Displacement of [3H]RX821002 from Alpha-2 adrenergic receptor in Sprague-Dawley rat brain P2 membranes after […] by liquid scintillation counting
# T1 sequence (P22086 whole entry): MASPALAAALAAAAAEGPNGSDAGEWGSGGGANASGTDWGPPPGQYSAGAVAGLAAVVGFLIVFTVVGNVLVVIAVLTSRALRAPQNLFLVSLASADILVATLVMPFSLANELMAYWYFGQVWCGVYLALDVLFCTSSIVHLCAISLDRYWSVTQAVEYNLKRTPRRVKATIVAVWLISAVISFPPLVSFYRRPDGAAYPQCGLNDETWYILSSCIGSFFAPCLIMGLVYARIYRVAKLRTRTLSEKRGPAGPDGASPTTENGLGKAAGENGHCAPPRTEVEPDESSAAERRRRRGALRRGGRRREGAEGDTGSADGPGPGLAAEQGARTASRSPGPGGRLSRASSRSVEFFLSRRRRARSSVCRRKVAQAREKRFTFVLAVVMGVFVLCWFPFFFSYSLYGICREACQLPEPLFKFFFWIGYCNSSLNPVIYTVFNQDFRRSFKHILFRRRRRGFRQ
# T1 sequence (P19328 whole entry): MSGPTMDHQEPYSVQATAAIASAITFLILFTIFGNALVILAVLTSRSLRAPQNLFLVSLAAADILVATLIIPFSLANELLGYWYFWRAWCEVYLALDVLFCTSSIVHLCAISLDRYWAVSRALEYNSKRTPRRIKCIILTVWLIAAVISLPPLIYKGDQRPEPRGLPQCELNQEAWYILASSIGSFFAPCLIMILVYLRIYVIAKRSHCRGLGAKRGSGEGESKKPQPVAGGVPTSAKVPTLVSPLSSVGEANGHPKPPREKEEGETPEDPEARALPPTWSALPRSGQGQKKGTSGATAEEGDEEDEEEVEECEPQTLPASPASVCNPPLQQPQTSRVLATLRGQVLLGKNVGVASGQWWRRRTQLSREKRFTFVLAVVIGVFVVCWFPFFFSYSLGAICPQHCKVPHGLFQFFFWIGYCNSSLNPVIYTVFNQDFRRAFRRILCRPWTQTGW
# T1 sequence (P22909 whole entry): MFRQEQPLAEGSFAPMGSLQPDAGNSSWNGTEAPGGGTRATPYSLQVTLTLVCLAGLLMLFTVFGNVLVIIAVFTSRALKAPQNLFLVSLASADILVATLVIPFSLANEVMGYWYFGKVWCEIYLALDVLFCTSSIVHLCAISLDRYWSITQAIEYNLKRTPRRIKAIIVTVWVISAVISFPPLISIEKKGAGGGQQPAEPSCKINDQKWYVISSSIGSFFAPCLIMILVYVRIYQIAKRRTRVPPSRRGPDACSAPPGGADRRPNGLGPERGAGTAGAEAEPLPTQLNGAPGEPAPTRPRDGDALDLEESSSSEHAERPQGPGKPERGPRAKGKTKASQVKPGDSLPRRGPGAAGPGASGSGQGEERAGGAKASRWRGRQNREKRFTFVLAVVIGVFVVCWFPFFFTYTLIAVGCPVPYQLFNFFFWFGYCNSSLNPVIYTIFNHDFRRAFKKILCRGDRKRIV
# Nischarin = Nischarin (Rattus norvegicus, UniProt Q4G017); experiment: Displacement of [3H]clonidine from Imidazoline receptor 1 in Sprague-Dawley rat kidney P2 membranes after […] by liquid scintillation counting
# [2] = Displacement of [3H]2BFI from Imidazoline receptor 2 in Sprague-Dawley rat brain P2 membrans after […] by liquid scintillation counting
# Rattus norvegicus [3] = experiment: Antihypertensive activity in anesthetized Wistar rat assessed as change in mean arterial blood pressure at 0.1 mg/kg, iv administered as bolus dose after 2 mins; type: functional
# Rattus norvegicus [4] = experiment: Antihypertensive activity in anesthetized Wistar rat assessed as change in mean arterial blood pressure at 0.1 mg/kg, iv administered as bolus dose after 5 mins (reference value: 0.4 mmHg); type: functional
# Rattus norvegicus [5] = experiment: Antihypertensive activity in anesthetized Wistar rat assessed as change in mean arterial blood pressure at 0.1 mg/kg, iv administered as bolus dose after 15 mins (reference value: -0.8 mmHg); type: functional
# Rattus norvegicus [6] = experiment: Antihypertensive activity in anesthetized Wistar rat assessed as change in mean arterial blood pressure at 0.1 mg/kg, iv administered as bolus dose after 30 mins (reference value: -1.3 mmHg); type: functional
# Rattus norvegicus [7] = experiment: Antihypertensive activity in anesthetized Wistar rat assessed as change in mean arterial blood pressure at 0.1 mg/kg, iv administered as bolus dose after 60 mins (reference value: -3.5 mmHg); type: functional
# Rattus norvegicus [8] = experiment: Antihypertensive activity in anesthetized Wistar rat assessed as change in heart rate at 0.1 mg/kg, iv administered as bolus dose after 2 mins (reference value: -0.6 […]); type: functional
# Rattus norvegicus [9] = experiment: Antihypertensive activity in anesthetized Wistar rat assessed as change in heart rate at 0.1 mg/kg, iv administered as bolus dose after 5 mins (reference value: -2.9 […]); type: functional
# Rattus norvegicus [10] = experiment: Antihypertensive activity in anesthetized Wistar rat assessed as change in heart rate at 0.1 mg/kg, iv administered as bolus dose after 15 mins (reference value: -6.0 […]); type: functional
# Rattus norvegicus [11] = experiment: Antihypertensive activity in anesthetized Wistar rat assessed as change in heart rate at 0.1 mg/kg, iv administered as bolus dose after 30 mins (reference value: -8.6 […]); type: functional
# Rattus norvegicus [12] = experiment: Antihypertensive activity in anesthetized Wistar rat assessed as change in heart rate at 0.1 mg/kg, iv administered as bolus dose after 60 mins (reference value: -6.2 […]); type: functional
# Nischarin, sequence (Q4G017 whole entry): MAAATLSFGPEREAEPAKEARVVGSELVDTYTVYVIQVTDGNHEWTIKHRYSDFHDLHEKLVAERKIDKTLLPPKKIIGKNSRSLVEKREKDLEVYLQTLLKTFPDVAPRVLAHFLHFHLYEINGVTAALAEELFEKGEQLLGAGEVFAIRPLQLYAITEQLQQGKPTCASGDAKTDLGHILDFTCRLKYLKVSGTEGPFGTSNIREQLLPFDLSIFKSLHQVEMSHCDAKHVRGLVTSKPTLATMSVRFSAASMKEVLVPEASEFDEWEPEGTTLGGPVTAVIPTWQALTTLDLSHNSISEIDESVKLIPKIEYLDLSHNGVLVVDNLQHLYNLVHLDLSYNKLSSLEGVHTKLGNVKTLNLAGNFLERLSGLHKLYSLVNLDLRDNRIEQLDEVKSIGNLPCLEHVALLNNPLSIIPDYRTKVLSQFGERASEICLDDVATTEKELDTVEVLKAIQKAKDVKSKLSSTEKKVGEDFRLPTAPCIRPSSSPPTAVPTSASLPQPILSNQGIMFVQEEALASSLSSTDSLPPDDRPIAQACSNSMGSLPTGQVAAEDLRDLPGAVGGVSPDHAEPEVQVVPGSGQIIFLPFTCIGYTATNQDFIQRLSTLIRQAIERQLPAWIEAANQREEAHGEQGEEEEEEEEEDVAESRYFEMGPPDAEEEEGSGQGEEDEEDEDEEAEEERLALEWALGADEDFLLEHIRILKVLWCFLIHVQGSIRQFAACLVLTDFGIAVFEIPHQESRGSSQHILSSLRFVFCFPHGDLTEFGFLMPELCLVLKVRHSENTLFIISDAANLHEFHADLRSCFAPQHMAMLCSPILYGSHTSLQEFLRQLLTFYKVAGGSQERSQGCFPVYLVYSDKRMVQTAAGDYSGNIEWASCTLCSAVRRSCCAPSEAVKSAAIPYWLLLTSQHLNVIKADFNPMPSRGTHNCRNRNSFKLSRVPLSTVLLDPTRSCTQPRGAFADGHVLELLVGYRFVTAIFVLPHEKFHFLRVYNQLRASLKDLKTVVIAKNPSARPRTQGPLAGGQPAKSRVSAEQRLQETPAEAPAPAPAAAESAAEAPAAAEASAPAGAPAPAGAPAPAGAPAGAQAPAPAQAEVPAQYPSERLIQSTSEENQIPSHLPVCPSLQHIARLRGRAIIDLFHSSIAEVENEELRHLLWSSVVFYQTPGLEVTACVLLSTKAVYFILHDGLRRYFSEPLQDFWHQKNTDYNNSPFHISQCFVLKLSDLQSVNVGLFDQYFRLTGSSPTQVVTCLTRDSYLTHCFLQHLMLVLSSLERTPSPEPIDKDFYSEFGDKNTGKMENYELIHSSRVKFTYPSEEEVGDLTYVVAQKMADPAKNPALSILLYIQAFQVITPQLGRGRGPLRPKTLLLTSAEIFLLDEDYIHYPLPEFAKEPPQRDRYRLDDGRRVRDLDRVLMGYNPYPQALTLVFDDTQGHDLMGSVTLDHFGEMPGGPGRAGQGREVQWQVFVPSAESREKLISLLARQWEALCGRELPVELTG
SMILES,Ki [1] [nM],Ki (Nischarin) [nM],Ki [2] [nM],Activity (Rattus norvegicus [3]) [mmHg],Activity (Rattus norvegicus [4]) [mmHg],Activity (Rattus norvegicus [5]) [mmHg],Activity (Rattus norvegicus [6]) [mmHg],Activity (Rattus norvegicus [7]) [mmHg],Activity (Rattus norvegicus [8]) [bpm],Activity (Rattus norvegicus [9]) [bpm],Activity (Rattus norvegicus [10]) [bpm],Activity (Rattus norvegicus [11]) [bpm],Activity (Rattus norvegicus [12]) [bpm]
Cl.c1ccc2c(c1)ccn2CC1=NCCN1,33.5,81400,197,34.1,33.7,6.9,-27.9,-38.5,-138.4,-100.1,-115.2,-105.3,-75.1
Br.Cc1cccc2ccn(CC3=NCCN3)c12,16.63,1000,1160,13.4,-4.2,-39.2,-46.5,-40.9,-61.3,-83.3,-107.5,-111.7,-87.7
Cl.Clc1cccc2ccn(CC3=NCCN3)c12,6.34,10300,71.1,15.2,7.4,-36,-56.1,-61.2,-89.6,-132,-130.7,-125.4,-129.4
